In ChEMBL document CHEMBL4387714, “Four N-(E)-cinnamoyl (cinnamamide) derivatives of aminoalkanols with promising anticonvulsant and analgesic activity” (Bioorg Med Chem Lett, 2019):
The source made the active and inactive calls. The calls are words filed in the database; no cut-off is given here.

Key:
[1] = Toxicity in albino CF1 mouse assessed as body weight at 180 mg/kg, ip measured at 0.5 hrs (reference value: 29.3 +/- 0.3 g); format: organism-based; conditions: in vivo
Mus musculus [2] = assay: Anticonvulsant activity in ip dosed 60-Hz corneal stimulation-induced full kindling albino CF1 mouse model of epilepsy assessed as reduction in seizure score treated 0.25 hrs prior to 60-Hz corneal stimulation; format: functional
Mus musculus [3] = assay: Anticonvulsant activity in albino CF1 mouse model of metrazol-induced seizures assessed as metrazol dose causing first twitch at 56 mg/kg, ip administered 0.5 hrs prior to MTZ challenge (reference value: 25.6 +/- 0.9 mg/kg); format: functional
Mus musculus [4] = assay: Anticonvulsant activity in albino CF1 mouse assessed as time to clonus at 180 mg/kg, ip administered 0.5 hrs prior to MTZ challenge (reference value: 29.3 +/- 1.2 s); format: functional
Mus musculus [5] = assay: Anticonvulsant activity in albino CF1 mouse assessed as metrazol dose causing first clonus at 56 mg/kg, ip administered 0.5 hrs prior to MTZ challenge (reference value: 28.4 +/- 1.1 mg/kg); format: functional
Mus musculus [6] = assay: Anticonvulsant activity in 60-Hz corneal stimulation-induced full kindling albino CF1 mouse model of epilepsy assessed as reduction in seizure score at 15 mg/kg, ip administered 0.25 hrs prior to 60-Hz corneal stimulation; format: functional, organism-based
Mus musculus [7] = assay: Anticonvulsant activity in albino CF1 mouse model of metrazol-induced seizures assessed as time to twitch at 180 mg/kg, ip administered 0.5 hrs prior to MTZ challenge (reference value: 26.5 +/- 1.0 s); format: functional
Mus musculus [8] = assay: Anticonvulsant activity in 60-Hz corneal stimulation-induced full kindling albino CF1 mouse model of epilepsy assessed as reduction in seizure score at 25 mg/kg, ip administered 0.25 hrs prior to 60-Hz corneal stimulation; format: functional, organism-based
Mus musculus [9] = assay: Anticonvulsant activity in albino CF1 mouse model of metrazol-induced seizures assessed as time to twitch at 56 mg/kg, ip administered 0.5 hrs prior to MTZ challenge (reference value: 26.5 +/- 1.0 s); format: functional
Mus musculus [10] = assay: Anticonvulsant activity in 60-Hz corneal stimulation-induced full kindling albino CF1 mouse model of epilepsy assessed as reduction in seizure score at 70 mg/kg, ip administered 0.25 hrs prior to 60-Hz corneal stimulation; format: functional, organism-based
Mus musculus [11] = assay: Anticonvulsant activity in albino CF1 mouse assessed as time to clonus at 56 mg/kg, ip administered 0.5 hrs prior to MTZ challenge (reference value: 29.3 +/- 1.2 s); format: functional
Mus musculus [12] = assay: Anticonvulsant activity in albino CF1 mouse model of metrazol-induced seizures assessed as metrazol dose causing first twitch at 180 mg/kg, ip administered 0.5 hrs prior to MTZ challenge (reference value: 25.6 +/- 0.9 mg/kg); format: functional
Mus musculus [13] = assay: Anticonvulsant activity in albino CF1 mouse assessed as metrazol dose causing first clonus at 180 mg/kg, ip administered 0.5 hrs prior to MTZ challenge (reference value: 28.4 +/- 1.1 mg/kg); format: functional
Mus musculus [14] = assay: Anticonvulsant activity in 60-Hz corneal stimulation-induced full kindling albino CF1 mouse model of epilepsy assessed as reduction in seizure score at 42 mg/kg, ip administered 0.25 hrs prior to 60-Hz corneal stimulation; format: functional, organism-based
[15] = Toxicity in albino CF1 mouse assessed as body weight at 56 mg/kg, ip measured at 0.5 hrs (reference value: 29.3 +/- 0.3 g); format: organism-based; conditions: in vivo
Mus musculus [16] = assay: Anticonvulsant activity in albino CF1 mouse model of metrazol-induced seizures assessed as time to twitch at 196 mg/kg, ip administered 0.25 hrs prior to MTZ challenge (reference value: 25.9 +/- 1.3 s); format: functional
Brain [17] = assay: (§1) In vitro anticonvulsant activity in kainic acid-induced albino Sprague Dawley rat brain assessed as blockade of ACSF-stimulated spontaneous electrographic seizure-like activity in medial entorhinal cortex hippocampal brain slices by measuring burst duration at 100 uM measured after 20 mins relative to control; format: functional
Mus musculus [18] = assay: Anticonvulsant activity in albino CF1 mouse assessed as time to clonus at 54 mg/kg, ip administered 0.25 hrs prior to MTZ challenge (reference value: 29 +/- 1.6 s); format: functional
Mus musculus [19] = assay: Anticonvulsant activity in albino CF1 mouse model of metrazol-induced seizures assessed as metrazol dose causing first twitch at 196 mg/kg, ip administered 0.25 hrs prior to MTZ challenge (reference value: 27.6 +/- 1.3 mg/kg); format: functional
Mus musculus [20] = assay: Anticonvulsant activity in albino CF1 mouse model of metrazol-induced seizures assessed as metrazol dose causing first twitch at 54 mg/kg, ip administered 0.25 hrs prior to MTZ challenge (reference value: 27.6 +/- 1.3 mg/kg); format: functional
[21] = Toxicity in albino CF1 mouse assessed as body weight at 196 mg/kg, ip measured at 0.25 hrs (reference value: 26.5 +/- 0.3 g); format: organism-based; conditions: in vivo
Mus musculus [22] = assay: Anticonvulsant activity in 60-Hz corneal stimulation-induced full kindling albino CF1 mouse model of epilepsy assessed as reduction in seizure score at 94 mg/kg, ip administered 0.25 hrs prior to 60-Hz corneal stimulation; format: functional, organism-based
Mus musculus [23] = assay: Anticonvulsant activity in albino CF1 mouse assessed as metrazol dose causing first clonus at 196 mg/kg, ip administered 0.25 hrs prior to MTZ challenge (reference value: 30.9 +/- 1.6 mg/kg); format: functional
Mus musculus [24] = assay: Neuroprotective activity against controlled cortical impact-induced C57Bl/6 acute mouse model of traumatic brain injury assessed as lesion volume at 54 mg/kg, ip administered twice daily for 3 days starting from 0.5 hrs post controlled cortical impact challenge measured post-last dose by naurotrace 435/455 staining-based fluorescent microscopy (reference value: 11.9 +/- 0.7 mm3); format: functional
[25] = Toxicity in albino CF1 mouse assessed as body weight at 54 mg/kg, ip measured at 0.25 hrs (reference value: 26.5 +/- 0.3 g); format: organism-based; conditions: in vivo
Mus musculus [26] = assay: Anticonvulsant activity in albino CF1 mouse assessed as metrazol dose causing first clonus at 54 mg/kg, ip administered 0.25 hrs prior to MTZ challenge (reference value: 30.9 +/- 1.6 mg/kg); format: functional
Brain [27] = assay: as §1, with “rate” for “duration”; format: functional
Mus musculus [28] = assay: Anticonvulsant activity in albino CF1 mouse model of metrazol-induced seizures assessed as time to twitch at 54 mg/kg, ip administered 0.25 hrs prior to MTZ challenge (reference value: 25.9 +/- 1.3 s); format: functional
Mus musculus [29] = assay: Anticonvulsant activity in albino CF1 mouse assessed as time to clonus at 196 mg/kg, ip administered 0.25 hrs prior to MTZ challenge (reference value: 29 +/- 1.6 s); format: functional

With CC(O)CNC(=O)/C=C/c1ccc(Cl)cc1 (racemic) the Activity [1] was 28.6 g, the ED50 (Mus musculus [2]) was 51.1 mg/kg and the Activity (Mus musculus [3]) was 45 mg/kg. The Time (Mus musculus [4]) was 106.1 s, the Activity (Mus musculus [5]) was 65.4 mg/kg and the Activity (Mus musculus [6]) was “inactive”. The Time (Mus musculus [7]) was 60.8 s, the Activity (Mus musculus [8]) was “inactive” and the Time (Mus musculus [9]) was 45.1 s. The Activity (Mus musculus [10]) was “Active”, the Time (Mus musculus [11]) was 65.6 s and the Activity (Mus musculus [12]) was 60.3 mg/kg. The Activity (Mus musculus [13]) was 105.4 mg/kg, the Activity (Mus musculus [14]) was “inactive” and the Activity [15] was 28.4 g.

CCC(CO)NC(=O)/C=C/c1ccc(Cl)cc1 (racemic) gave a Time (Mus musculus [16]) of 63 s, an Activity (Brain [17]) of 90% and an ED50 (Mus musculus [2]) of 25.7 mg/kg. The Time (Mus musculus [18]) was 42.1 s, the Activity (Mus musculus [19]) was 68.7 mg/kg and the Activity (Mus musculus [20]) was 36.2 mg/kg. The Activity [21] was 26 g, the Activity (Mus musculus [22]) was “Active” and the Activity (Mus musculus [23]) was 98.6 mg/kg. It also gave an Activity (Mus musculus [24]) of 11.44 mm3, an Activity [25] of 26.5 g and an Activity (Mus musculus [26]) of 44.9 mg/kg. For the same compound, the Activity (Brain [27]) was 87%, the Time (Mus musculus [28]) was 33.9 s and the Time (Mus musculus [29]) was 90.2 s.
